From a melting point compilation (Tetko et al.; mined from patent text by program, amines drawn as free bases though some values may be those of a salt)

`O=C1c2cc3ccc4c(c3c(-c3ccc5c(c3)OCO5)c2C(=O)N1CCCO)OCO4` gave a melting point of 150 to 152 °C. In the case of `COc1cc2c(=O)n(C(C)CN(C)C)c3c4cc5c(cc4ncc3c2cc1OC)OCO5` (stereo not drawn), the melting point is reported as 186 to 187 °C. In the case of `CCOc1c(OC)cc([N+](=O)[O-])c2ncccc12`, the melting point is reported as 88 to 95 °C. `CN(C)c1ncc(-c2cccc(-n3cnc4cc(-n5cccc5)ccc43)c2)cn1` showed a melting point of 237 to 238 °C. `FC(F)(F)c1cccc(N2CCN(Cc3n[nH]c4ccccc34)CC2)c1` showed a melting point of 78 to 80 °C. Compound `CCCCCCCCC=CCCCCCCCCCCCC(=O)Nc1ccc(Cl)cc1C(=O)O` has a melting point of 159 to 162 °C. `CN1Cc2c(-c3noc(CCl)n3)ncn2-c2cccc(Cl)c2C1=O` showed a melting point of 208 to 210 °C. `CN1C(=O)CSC(c2cccc(Cl)c2)c2cc(C(O)(c3ccc(Cl)cc3)c3cncn3C)ccc21` (stereo not drawn) showed a melting point of 186 °C. `C=CCC(C#N)(C#N)Cc1ccc(C)cc1` gave a melting point of 74.5 °C. `CCC(=O)OCOC(=O)Oc1ccc([N+](=O)[O-])cc1` gave a melting point of 35 to 36 °C. `Cc1ccc2c(=O)[nH]c(=O)n(C(C)C)c2c1` showed a melting point of 250 to 251 °C. `O=C(NCCO)c1cccc(-c2cccc3nn(Cc4cc(F)cc(Cl)c4)cc23)c1` gave a melting point of 188 to 189 °C. `C(=Cc1ccc2nc(-c3ccccc3)oc2c1)c1ccc(-c2nc3ccccc3o2)cc1` gave a melting point of 233 to 237 °C. Compound `Cc1c(C)c(N2Cc3ccccc3C2)c(C)c2c1OC(C)(C)C2c1ccc(C(C)C)cc1` (stereo not drawn) has a melting point of 113 to 114 °C. With `CCOC(=O)Nc1ccc(C)c(Cl)c1` the melting point was 51 to 52 °C. `Cc1ccc(C(=O)O)c(NS(C)(=O)=O)c1` gave a melting point of 202 to 205 °C. `CC(C)(C)c1ccc(C(=O)N[C@H]2CC[C@H](CCN3CCC(c4cccc5c4CCO5)CC3)CC2)cc1` showed a melting point of 208 °C. `COc1cc(OC)c(NC(=O)[C@H]2[C@H](c3ccc(S(N)(=O)=O)cc3)C2(C)C)cc1Cl` (relative stereo) gave a melting point of 248 to 251 °C. Compound `COC(=O)[C@@H]1C[C@H](Oc2cc(-c3nc(C(C)C)cs3)nc3c(C)c(OC)ccc23)C[C@H]1C(=O)O` has a melting point of 135 °C. Compound `O=C1[C@H](CC[C@H](O)c2ccc(F)cc2)[C@@H](c2ccc(O)c(-c3ccccc3)c2)N1c1ccc(F)cc1` has a melting point of 113 °C. `CCOC(=O)C[C@H]1CC[C@H](CNC(C)=O)CC1` gave a melting point of 74 to 76 °C. `CCCCC(CCCc1cccnc1)CC(NS(=O)(=O)c1ccc(Cl)cc1)C(=O)O` (stereo not drawn) showed a melting point of 113 to 114 °C. Compound `CCCCCCCCCCCCCCCCOc1cccc(O)c1C` has a melting point of 53 to 54 °C. `O=[N+]([O-])c1ccc2c(c1)CCN(C[C@H](O)C(F)(F)F)CC2` gave a melting point of 82 to 85 °C. In the case of `CC#CCOc1ccc(S(=O)(=O)N[C@@H](C(=O)NO)C2CCC(O)CC2)cc1` (stereo partly drawn), the melting point is reported as 180 to 182 °C. `CCCCCNC(=O)[C@@H](Cc1ccc(OCC(=O)O)c(C(=O)O)c1)NC(=O)Cc1ccccc1OC` showed a melting point of 146 to 148 °C. Work on `CCC(=O)N=c1sc2cccc(C)c2n1N` yielded a melting point of 175 to 176 °C. With `Fc1cc(OCc2ccccc2)ccc1-c1ncc(Br)cn1` the melting point was 124 °C. For `CC(=O)c1ccc2c(c1)C(=O)C=C(C)C2=O`, the melting point was 126 °C. `O=C(O)c1cccc(Nc2nc(Oc3ccccc3)nc(Oc3cccc(Cl)c3)n2)c1` showed a melting point of 227 to 230 °C. `Clc1ccc(CCC(Cn2ccnc2)SCc2ccco2)cc1` (stereo not drawn) showed a melting point of 97 to 98 °C. With `CC1(C)OC(=O)C(OC2CCCC2)=C1c1ccc(S(C)(=O)=O)cc1` the melting point was 121 to 122 °C. In the case of `CC=Cn1c(C(F)(F)F)nn(-c2c([N+](=O)[O-])cc(C(F)(F)F)cc2[N+](=O)[O-])c1=O`, the melting point is reported as 136 °C. For `O=S(=O)(c1cc(Cl)cc(Cl)c1)c1nnc(C(F)(F)F)s1`, the melting point was 123 °C. Work on `Cc1c(C(=O)N(C)Cc2ccc3c(Br)c(OCc4nnn[nH]4)ccc3c2)oc2ccccc12` yielded a melting point of 164 to 166 °C. Compound `CCCCOc1nc(N)c2nc(OC)n(CCNc3cccc(CC(=O)OC)c3)c2n1` has a melting point of 119 to 120 °C. `COc1ccc(N2C(=O)C(=O)c3cc(OC)ccc32)cc1` showed a melting point of 203 to 205 °C. Work on `CCc1cc(Cl)c(OC)c(C(=O)N[C@H]2CCN(CCCC(=O)N3CCCC3)C[C@H]2OC)c1O` (relative stereo) yielded a melting point of 90.8 °C. Work on `CN(C)C=Nc1ncc[nH]1` yielded a melting point of 146 to 147 °C. Work on `CCCCCCCCCCCC(=O)NC(CCC(=O)O)C(=O)O` (racemic) yielded a melting point of 101 to 104 °C. Compound `O=C(Cn1c(-c2ccccc2)ccc(NC(=O)OCc2ccc(C(=O)O)cc2)c1=O)NC(Cc1ccccc1)C(=O)C(F)(F)F` (stereo not drawn) has a melting point of 214 to 216 °C. Work on `O=C(NO)c1ccc(CNC(=O)c2[nH]c(-c3ccccc3)cc2-c2ccc(F)cc2)cc1` yielded a melting point of 215 to 216 °C. With `CCOC(=O)c1cc(O[C@@H]2c3c(C)ccc(C)c3C[C@H]2O)c2nc(C)n(C)c2c1` (relative stereo) the melting point was 184 °C. Compound `O=C(Nc1nc(C(Cl)(Cl)Cl)ns1)C(F)(F)F` has a melting point of 116 °C. In the case of `Cc1cc(OCc2ccccc2)c(C23CC4CC(CC(C4)C2)C3)cc1Br`, the melting point is reported as 138 to 139 °C. Work on `O=C1c2ccc([N+](=O)[O-])cc2C(=O)N1C1CCN(Cc2ccccc2)CC1` yielded a melting point of 240 to 242 °C. Work on `CCOC(=O)c1ccc(NCCCCCCCCCCC[Si](C)(C)C)cc1` yielded a melting point of 66 to 68 °C. With `COC(=O)Cc1nc(-c2ccccc2)c(-c2ccccc2)s1` the melting point was 65 to 67 °C. With `CC(=O)N(CC=C=CC=c1c(C)c2c(n(-c3ccccc3)c1=O)=NN(c1ccccc1)C2=O)c1ccccc1` the melting point was greater than 300 °C. For `O=C(O)c1snc(-c2ccc(Cl)c(Cl)c2)c1C(=O)O`, the melting point was 188 °C. With `CCNc1ccc(C(=O)Nc2ccc(OC)cc2)c(NC(=O)c2ccc(C(C)(C)C)cc2)c1` the melting point was 205 to 208 °C. Compound `O=C(O)C(Cc1ccccc1)Oc1ccc(-c2ccc(-c3c(Cc4ccccc4)oc4ccccc34)cc2)cc1Br` (stereo not drawn) has a melting point of 80 to 82 °C. With `Cc1nnc(-c2cccs2)c(=O)n1N` the melting point was 210 °C. For `Cc1nc(-c2ccccc2)nc(N2CCCC2C(=O)N2CC(C)NC(C)C2)c1C` (stereo not drawn), the melting point was 160 to 162 °C. In the case of `C=C1OC(c2ccc(Cl)cc2)=NC1(C)CC` (stereo not drawn), the melting point is reported as 55 to 57 °C. Compound `C=CCOc1cccc(C(C)=O)c1O` has a melting point of 51 to 52 °C. With `C=CCNC(=O)[C@H]1CN(c2ccc(N3CCOCC3)c(F)c2)C(=O)O1` the melting point was 167 to 169 °C. `N#CC1(C#N)CCOCC1` showed a melting point of 110 to 112 °C. `CCOC(=O)c1ccccc1SC1C(=O)N(c2c(Cl)cc(Cl)cc2Cl)N=C1OC` (stereo not drawn) showed a melting point of 185 to 187 °C. With `O=C1[C@@H]2[C@H](O)CCN2C(=O)N1c1ccc([N+](=O)[O-])c2ccccc12` (relative stereo) the melting point was 255 to 257 °C. With `COc1cc(C)nc(NC(=O)NS(=O)(=O)c2ccccc2NC(C)=O)n1` the melting point was 161 to 162 °C. With `O=C(CCCC(=O)C(F)(F)F)c1ccc(-c2cccc3ccccc23)cc1` the melting point was 79.7 to 82.5 °C. `CS(=O)(=O)c1ccc(-c2ccccc2N)cc1` gave a melting point of 164 to 165 °C. For `Cc1nc(C)c(Cl)c(CNCc2ccc(O)cn2)n1`, the melting point was 137 to 138 °C. For `O=C(NCc1ccc(Cl)cc1)c1cn(CC2CCCO2)c2sc(CN3CCOCC3)cc2c1=O` (stereo not drawn), the melting point was 191 to 195 °C. `O=C(O)c1cn(C2CC2)c2c(F)c(N3CCOC(CN4CCNCC4)C3)c(F)cc2c1=O` (stereo not drawn) showed a melting point of 260 °C. Compound `Cc1cc(COc2cccc3c2CN(C2CCC(=O)NC2=O)C3=O)nn1C` (stereo not drawn) has a melting point of 214 to 216 °C. Compound `Nc1nsnc1NCCCOc1cccc(CN2CCCCC2)c1` has a melting point of 137 to 138 °C.
